Measured values published in article PMC9305971, “Development of [^18F]AmBF3 Tetrazine for Radiolabeling of Peptides: Preclinical Evaluation and PET Imaging of [^18F]AmBF3-PEG7-Tyr^3-Octreotide in an AR42J Pancreatic Carcinoma Model” (Bioconjugate Chemistry, 2022).
Where two headings read alike, the source gives them in different places.

Legend:
[1] = Enzymatic stability in 50% human plasma-0.01 M PBS; format: in vitro ADME; conditions: 50% (v/v) human plasma-0.01 M PBS, 37 °C
Procedure: Lipophilicity was determined with the shake-flask method as a distribution coefficient between 0.01 M PBS and octanol. Purified radiotracer [^18F]6 (10 μL, ∼200 kBq, 1.5 nmol), [^18F]14 (20 μL, ∼260 kBq, 125 pmol), or [^18F]15 (20 μL, 144 kBq, 67 pmol) in a polypropylene tube containing 1500–2000 μL of each in a 1:1 mixture (1-octanol, 0.02 M PBS, pH 7.4) was shaken mechanically (500 rpm, 10 min) and centrifuged (1000g, 5 min), and samples from each layer (400 μL, n = 4) were measured with a γ-counter. The log D7.4 was calculated as a distribution between the two layers at pH 7.4. [^18F]6 (10 MBq, 40 nmol) diluted with 0.01 M PBS at pH 7.4 (≤1% ethanol, 5300 μL) was incubated for 180 min. At selected time points (5, 30, 60, 90, 120, 150, and 180 min), a sample (100 μL) was injected to radio-HPLC. [^18F]14 and [^18F]15 (29 MBq, 10 nmol) diluted in 2000 μL of 0.01 M PBS (≤1% ethanol) were left to incubate. A sample of [^18F]14 (100 μL) after 9 hours and [^18F]15 at selected time points between 30 and 335 min were injected into HPLC (method A). [^18F]15 (0.6 MBq, 0.134 nmol, 200 μL) formulated in ≤5% EtOH-1 × PBS was added and incubated in 2000 μL of PBS-50% human plasma at 37 °C. A 100 μL sample (at 60, 120, 180, and 240 min, n = 2) was diluted with 200 μL of cold acetonitrile and centrifuged (10,000g, 5 min). […]

[2] = Ex vivo biodistribution of [18F]14 and [18F]15; format: in vivo, Rj:NMRI-Foxn1^nu/nu mice; conditions: mouse, iv, 0.2 nmol; for tissue to tissue ratio at 1 h: Rj:NMRI-Foxn1^nu/nu, tumor (AR42J xenograft) / blood, total radioactivity, read-out: T/blood ratio; for tissue to tissue ratio at 1 h / tissue uptake at 1 h: 60 min post injection; for tissue uptake at 1 h / tissue uptake at 2 h: i.v.; for tissue uptake at 2 h: 120 min post injection
Procedure: (§1) [^18F]14 and [^18F]15 in ≤4% ethanol–0.01 M PBS were administered intravenously (1.2 ± 0.0 and 2.0 ± 0.1 MBq, respectively, 0.2 nmol, 150 μL) to AR42J tumor-bearing Rj:NMRI-Foxn1^nu/nu mice. At predetermined time points (t = 30, 60, 120, and 240 min), animals were euthanized with CO2 asphyxiation and cervical dislocation, and then the organs were harvested, washed with water, and blotted dry, following with weighing and γ counting from which the % ID/g in tissues was determined.

[3] = test system: AR42J xenografts; experiment: Ex vivo biodistribution of [18F]14 and [18F]15; format: in vivo, Rj:NMRI-Foxn1^nu/nu mice
Procedure: as §1

In the case of `C[C@@H](O)[C@@H]1NC(=O)[C@H](CCCCN)NC(=O)[C@@H](Cc2c[nH]c3ccccc23)NC(=O)[C@H](Cc2ccc(O)cc2)NC(=O)[C@@H](NC(=O)[C@@H](Cc2ccccc2)NC(=O)CCOCCOCCOCCOCCON=Cc2ccc(C(=O)NCCOCCOCCOCCNC(=O)OC3CCCc4cnnc(-c5ccc(CC(=O)NCC[N+](C)(C)C[B-](F)(F)F)cc5)c4CC3)cc2)CSSC[C@@H](C(=O)N[C@H](CO)[C@@H](C)O)NC1=O` (stereo partly shown) [[^18F]15], the “enzymatic stability, time stable” value [1] is reported as “at least 180 min”, the tissue to tissue ratio at 1 h ([2]; blocked) is reported as 0.4 and the tissue to tissue ratio at 1 h ([2]; baseline) is reported as 0.5. The tissue uptake at 1 h ([2]; baseline, read-out: blood) was 9.6 ± 3.3 %ID/g, the tissue uptake at 1 h ([2]; baseline, read-out: brain) was 0.3 ± 0.1 %ID/g and the tissue uptake at 1 h ([2]; baseline, read-out: gallbladder) was 9.1 ± 7 %ID/g. For the same compound, the tissue uptake at 1 h ([2]; baseline, read-out: heart) was 2.6 ± 0.6 %ID/g, the tissue uptake at 1 h ([2]; baseline, read-out: kidney) was 21 ± 4.5 %ID/g and the tissue uptake at 1 h ([2]; baseline, read-out: liver) was 19 ± 5.4 %ID/g. For the same compound, the tissue uptake at 1 h ([2]; baseline, read-out: lung) was 5.4 ± 2.3 %ID/g, the tissue uptake at 1 h ([2]; baseline, read-out: muscle) was 1.1 ± 0.9 %ID/g and the tissue uptake at 1 h ([2]; baseline, read-out: pancreas) was 1.6 ± 0.5 %ID/g. For the same compound, the tissue uptake at 1 h ([2]; baseline, read-out: skin) was 2.4 ± 0.9 %ID/g, the tissue uptake at 1 h ([2]; baseline, read-out: spleen) was 1.4 ± 0.3 %ID/g and the tissue uptake at 1 h ([2]; baseline, read-out: urine) was roughly 174 %ID/g. The tissue uptake at 1 h ([2]; blocked with octreotide, read-out: blood) was 7.2 ± 2.5 %ID/g, the tissue uptake at 1 h ([2]; blocked with octreotide, read-out: brain) was 0.2 ± 0.1 %ID/g and the tissue uptake at 1 h ([2]; blocked with octreotide, read-out: gallbladder) was 18.8 ± 10.3 %ID/g. For the same compound, the tissue uptake at 1 h ([2]; blocked with octreotide, read-out: heart) was 2.1 ± 0.5 %ID/g, the tissue uptake at 1 h ([2]; blocked with octreotide, read-out: kidney) was 15.9 ± 2.7 %ID/g and the tissue uptake at 1 h ([2]; blocked with octreotide, read-out: liver) was 11.8 ± 4.7 %ID/g. The tissue uptake at 1 h ([2]; blocked with octreotide, read-out: lung) was 3.6 ± 1.4 %ID/g, the tissue uptake at 1 h ([2]; blocked with octreotide, read-out: muscle) was 0.5 ± 0.1 %ID/g and the tissue uptake at 1 h ([2]; blocked with octreotide, read-out: pancreas) was 0.9 ± 0.5 %ID/g. The tissue uptake at 1 h ([2]; blocked with octreotide, read-out: skin) was 1.6 ± 0.2 %ID/g, the tissue uptake at 1 h ([2]; blocked with octreotide, read-out: spleen) was 0.9 ± 0.2 %ID/g and the tissue uptake at 1 h ([2]; blocked with octreotide, read-out: urine) was 303 ± 146 %ID/g. It also gave a tissue uptake at 1 h ([2]; large intestine with contents, baseline, read-out: L. I. (+cont.), large intestine) of 1 ± 0.7 %ID/g, a tissue uptake at 1 h ([2]; large intestine with contents, blocked with octreotide, read-out: L. I. (+cont.), large intestine) of 0.7 ± 0.3 %ID/g and a tissue uptake at 1 h ([2]; occipital bone, baseline, read-out: bone, occipital) of 0.9 ± 0.3 %ID/g. It also gave a tissue uptake at 1 h ([2]; occipital bone, blocked with octreotide, read-out: bone, occipital) of 1 ± 0.3 %ID/g, a tissue uptake at 2 h ([2]; occipital bone, read-out: bone, occipital) of 0.6 ± 0.1 %ID/g and a tissue uptake at 1 h ([2]; small intestine with contents, baseline, read-out: S. I. (+cont.), small intestines) of 3.6 ± 2.1 %ID/g. For the same compound, the tissue uptake at 1 h ([2]; small intestine with contents, blocked with octreotide, read-out: S. I. (+cont.), small intestines) was 5 ± 1.7 %ID/g, the tissue uptake at 1 h ([2]; stomach with contents, baseline, read-out: stomach (+cont.)) was 1.4 ± 0.8 %ID/g and the tissue uptake at 1 h ([2]; stomach with contents, blocked with octreotide, read-out: stomach (+cont.)) was 0.6 ± 0.1 %ID/g. The tissue uptake at 1 h ([2]; tibia bone, baseline, read-out: bone, tibia) was 1.1 ± 0.4 %ID/g, the tissue uptake at 1 h ([2]; tibia bone, blocked with octreotide, read-out: bone, tibia) was 0.8 ± 0.2 %ID/g and the tissue uptake at 2 h ([2]; tibia bone, read-out: bone, tibia) was 0.6 ± 0.4 %ID/g. The tissue uptake at 1 h ([2]; tumor, AR42J xenograft, baseline, read-out: tumor uptake) was 4.5 ± 1 %ID/g, the tissue uptake at 1 h ([2]; tumor, AR42J xenograft, blocked with octreotide, read-out: tumor uptake) was 3.1 ± 0.5 %ID/g and the urine ([3]; 60 min post injection, i.v., baseline) was 174.2 ± 73.4 % ID/g. For the same compound, the “defluorination in vivo (in words)” value ([3]; judged from bone uptake) was “no indication of defluorination”.
